Values after ≈ are worked out from the molar mass of the structure shown.
Legend:
Dihydrofolate reductase [1] = biological target: T1, Dihydrofolate reductase (Rattus norvegicus, UniProt Q920D2)
T1 sequence (Q920D2 whole entry): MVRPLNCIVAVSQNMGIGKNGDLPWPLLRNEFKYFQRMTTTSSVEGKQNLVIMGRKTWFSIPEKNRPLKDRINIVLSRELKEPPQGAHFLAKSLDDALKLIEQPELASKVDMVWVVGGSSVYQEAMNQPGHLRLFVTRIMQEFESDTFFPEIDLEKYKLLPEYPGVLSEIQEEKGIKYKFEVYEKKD

[2] = Dissociation constant of compound at 20 degree C; type: physicochemical
Escherichia coli [3] = assay: Comparative in vitro antibacterial activity of compound with trimethoprim against Escherichia coli CN314; type: functional
Enterococcus faecalis = assay: Comparative in vitro antibacterial activity of compound with trimethoprim against Streptococcus faecalis CN478; type: functional
Klebsiella aerogenes [4] = assay: Comparative in vitro antibacterial activity of compound with trimethoprim against Enterobacter aerogenes 2200/86; type: functional
Vibrio cholerae = assay: Comparative in vitro antibacterial activity of compound with trimethoprim against Vibrio cholerae ATCC 14035; type: functional
Streptococcus pyogenes [5] = assay: Comparative in vitro antibacterial activity of compound with trimethoprim against Streptococcus pyogenes CN10; type: functional
Salmonella typhimurium [6] = assay: Comparative in vitro antibacterial activity of compound with trimethoprim against Salmonella Typhimurium S 8587; type: functional, Salmonella enterica subsp. enterica serovar Typhimurium; conditions: Salmonella enterica
[7] = Comparative in vitro antibacterial activity of compound with trimethoprim against Salmonella typhi CN512; type: functional, salmonella typhosa
Streptococcus agalactiae [8] = assay: Comparative in vitro antibacterial activity of compound with trimethoprim against Streptococcus agalactiae CN1143; type: functional
Shigella flexneri [9] = assay: Comparative in vitro antibacterial activity of compound with trimethoprim against Shigella flexneri CN6007; type: functional
Proteus vulgaris [10] = assay: Comparative in vitro antibacterial activity of compound with trimethoprim against Proteus vulgaris CN329; type: functional
Klebsiella pneumoniae [11] = assay: Comparative in vitro antibacterial activity of compound with trimethoprim against Klebsiella pneumoniae CN3632; type: functional
Staphylococcus aureus = assay: Comparative in vitro antibacterial activity of compound with trimethoprim against Staphylococcus aureus CN491; type: functional
Dihydrofolate reductase [12] = biological target: T2, Dihydrofolate reductase (Escherichia coli, UniProt P0ABQ4)
T2 sequence (P0ABQ4 whole entry): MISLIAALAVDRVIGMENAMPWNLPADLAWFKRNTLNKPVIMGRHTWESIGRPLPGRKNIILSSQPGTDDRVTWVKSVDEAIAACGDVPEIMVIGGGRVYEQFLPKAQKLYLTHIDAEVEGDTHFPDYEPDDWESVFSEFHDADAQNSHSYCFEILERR
Description: Apparent binding affinity of compound in Escherichia coli DHFR

Streptococcus pyogenes [13] = assay: Comparative in vitro antibacterial activity of compound with trimethoprim against Streptococcus pyogenes CN10 on different day; type: functional
Shigella flexneri [14] = assay: Comparative in vitro antibacterial activity of compound with trimethoprim against Shigella flexneri CN6007 on different day; type: functional
Escherichia coli [15] = assay: Comparative in vitro antibacterial activity of compound with trimethoprim against Escherichia coli CN314 on different day; type: functional
Salmonella typhimurium [16] = assay: Comparative in vitro antibacterial activity of compound with trimethoprim against Salmonella Typhimurium S 8587 on different day; type: functional, Salmonella enterica subsp. enterica serovar Typhimurium; conditions: Salmonella enterica
Klebsiella aerogenes [17] = assay: Comparative in vitro antibacterial activity of compound with trimethoprim against Enterobacter aerogenes 2200/86 on different day; type: functional
Klebsiella pneumoniae [18] = assay: Comparative in vitro antibacterial activity of compound with trimethoprim against Klebsiella pneumoniae CN3632 on different day; type: functional
Proteus vulgaris [19] = assay: Comparative in vitro antibacterial activity of compound with trimethoprim against Proteus vulgaris CN329 on different day; type: functional
[20] = Comparative in vitro antibacterial activity of compound with trimethoprim against Salmonella typhi CN512 on different day; type: functional, salmonella typhosa
Streptococcus agalactiae [21] = assay: Comparative in vitro antibacterial activity of compound with trimethoprim against Streptococcus agalactiae CN1143 on different day; type: functional
Dihydrofolate reductase [22] = biological target: T3, Dihydrofolate reductase (Gallus gallus, UniProt P00378); assay: Inhibitory activity against Dihydrofolate reductase in chicken; conditions: read-out: I50
T3 sequence (P00378 whole entry): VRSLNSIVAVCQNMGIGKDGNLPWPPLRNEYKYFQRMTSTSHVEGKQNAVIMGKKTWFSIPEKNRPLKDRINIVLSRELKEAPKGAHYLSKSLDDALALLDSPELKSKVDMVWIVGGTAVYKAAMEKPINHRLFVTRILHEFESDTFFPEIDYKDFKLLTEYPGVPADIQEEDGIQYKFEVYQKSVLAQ

Dihydrofolate reductase [23] = biological target: T1, Dihydrofolate reductase; assay: Inhibitory activity against Dihydrofolate reductase in rat liver; type: functional, tissue-based; conditions: read-out: I50

## CC1=CC(C)(C)Nc2c1cc(Cc1cnc(N)nc1N)cc2[S+](C)[O-] (stereo not drawn)
Dihydrofolate reductase [1]
  IC50: 56 µM

## CC1=CC(C)(C)Nc2ccccc21
[2]
  pKa: 3.69

## COc1cc(Cc2cnc(N)nc2N)cc2c(C)ccnc12
Dihydrofolate reductase [1]
  IC50: 20 µM

## CC1=CC(C)(C)Nc2c(Cl)cc(Cc3cnc(N)nc3N)cc21
Escherichia coli [3]
  MIC: 100 µg/mL (≈ 303 µM)
Enterococcus faecalis
  MIC: 300 µg/mL (≈ 910 µM)
Klebsiella aerogenes [4]
  MIC: 300 µg/mL (≈ 910 µM)
Vibrio cholerae
  MIC: 100 µg/mL (≈ 303 µM)
Streptococcus pyogenes [5]
  MIC: 10 µg/mL (≈ 30.3 µM)
Salmonella typhimurium [6]
  MIC: 30 µg/mL (≈ 91 µM)
Dihydrofolate reductase [1]
  IC50: 76 µM
[7]
  MIC: 30 µg/mL (≈ 91 µM)
Streptococcus agalactiae [8]
  MIC: 100 µg/mL (≈ 303 µM)
Shigella flexneri [9]
  MIC: 100 µg/mL (≈ 303 µM)
Proteus vulgaris [10]
  MIC: 30 µg/mL (≈ 91 µM)
Klebsiella pneumoniae [11]
  MIC: 30 µg/mL (≈ 91 µM)
Staphylococcus aureus
  MIC: 30 µg/mL (≈ 91 µM)

## CC1=CC(C)(C)Nc2c(C)cc(Cc3cnc(N)nc3N)cc21
Dihydrofolate reductase [1]
  IC50: 500 µM

## CCc1cc(Cc2cnc(N)nc2N)cc2c1NC(C)(C)C=C2C
Dihydrofolate reductase [1]
  IC50: 174 µM

## COc1cc(Cc2cnc(N)nc2N)cc2c1N(C)C(C)(C)C=C2C
Dihydrofolate reductase [1]
  IC50: 340 µM

## CSc1cc(Cc2cnc(N)nc2N)cc2c1NC(C)(C)C=C2C
Escherichia coli [3]
  MIC: 10 µg/mL (≈ 29.3 µM)
Enterococcus faecalis
  MIC: ≤ 0.03 µg/mL
Klebsiella aerogenes [4]
  MIC: 10 µg/mL (≈ 29.3 µM)
Vibrio cholerae
  MIC: 1 µg/mL (≈ 2.93 µM)
Streptococcus pyogenes [5]
  MIC: 0.1 µg/mL (≈ 0.293 µM)
Salmonella typhimurium [6]
  MIC: 30 µg/mL (≈ 87.9 µM)
Dihydrofolate reductase [12]
  Ki: 0.00043 µM
Dihydrofolate reductase [1]
  IC50: 118 µM
[7]
  MIC: 30 µg/mL (≈ 87.9 µM)
Streptococcus agalactiae [8]
  MIC: 0.3 µg/mL (≈ 0.879 µM)
Shigella flexneri [9]
  MIC: 30 µg/mL (≈ 87.9 µM)
Proteus vulgaris [10]
  MIC: > 100 µg/mL
Klebsiella pneumoniae [11]
  MIC: 100 µg/mL (≈ 293 µM)
Staphylococcus aureus
  MIC: 0.3 µg/mL (≈ 0.879 µM)

## COc1cc(Cc2cnc(N)nc2N)cc2c1NC(C)(CF)C(F)=C2C (stereo not drawn)
Escherichia coli [3]
  MIC: 1 µg/mL (≈ 2.77 µM)
Enterococcus faecalis
  MIC: 0.0001 µg/mL (≈ 0.000277 µM)
Klebsiella aerogenes [4]
  MIC: 1 µg/mL (≈ 2.77 µM)
Vibrio cholerae
  MIC: 3 µg/mL (≈ 8.3 µM)
Streptococcus pyogenes [13]
  MIC: 0.0001 µg/mL (≈ 0.000277 µM)
Streptococcus pyogenes [5]
  MIC: 0.03 µg/mL (≈ 0.083 µM)
Salmonella typhimurium [6]
  MIC: 3 µg/mL (≈ 8.3 µM)
Shigella flexneri [14]
  MIC: 0.3 µg/mL (≈ 0.83 µM)
Dihydrofolate reductase [12]
  Ki: 0.0001 µM
Escherichia coli [15]
  MIC: 10 µg/mL (≈ 27.7 µM)
Dihydrofolate reductase [1]
  IC50: 233 µM
[7]
  MIC: 1 µg/mL (≈ 2.77 µM)
Streptococcus agalactiae [8]
  MIC: 0.1 µg/mL (≈ 0.277 µM)
Salmonella typhimurium [16]
  MIC: 3 µg/mL (≈ 8.3 µM)
Shigella flexneri [9]
  MIC: 3 µg/mL (≈ 8.3 µM)
Klebsiella aerogenes [17]
  MIC: 10 µg/mL (≈ 27.7 µM)
Klebsiella pneumoniae [18]
  MIC: 1 µg/mL (≈ 2.77 µM)
Proteus vulgaris [10]
  MIC: 3 µg/mL (≈ 8.3 µM)
Klebsiella pneumoniae [11]
  MIC: 10 µg/mL (≈ 27.7 µM)
Staphylococcus aureus
  MIC: 0.001 µg/mL (≈ 0.00277 µM)
Proteus vulgaris [19]
  MIC: 3 µg/mL (≈ 8.3 µM)
[20]
  MIC: 30 µg/mL (≈ 83 µM)
Streptococcus agalactiae [21]
  MIC: 0.03 µg/mL (≈ 0.083 µM)

## COc1cc(Cc2cnc(N)nc2N)cc2c1NC(C)(C)C=C2C
Escherichia coli [3]
  MIC: 3 µg/mL (≈ 9.22 µM)
Enterococcus faecalis
  MIC: 0.1 µg/mL (≈ 0.307 µM)
Klebsiella aerogenes [4]
  MIC: 3 µg/mL (≈ 9.22 µM)
Vibrio cholerae
  MIC: 3 µg/mL (≈ 9.22 µM)
Streptococcus pyogenes [5]
  MIC: 0.1 µg/mL (≈ 0.307 µM)
Salmonella typhimurium [6]
  MIC: 10 µg/mL (≈ 30.7 µM)
Dihydrofolate reductase [22]
  IC50: 1.3 µM
Dihydrofolate reductase [1]
  IC50: 300 µM
[7]
  MIC: 10 µg/mL (≈ 30.7 µM)
Streptococcus agalactiae [8]
  MIC: 0.3 µg/mL (≈ 0.922 µM)
Shigella flexneri [9]
  MIC: 3 µg/mL (≈ 9.22 µM)
Proteus vulgaris [10]
  MIC: 3 µg/mL (≈ 9.22 µM)
Klebsiella pneumoniae [11]
  MIC: 10 µg/mL (≈ 30.7 µM)
Staphylococcus aureus
  MIC: 0.3 µg/mL (≈ 0.922 µM)

## CN1CCCc2ccccc21
[2]
  pKa: 4.1

## CCN1CCC(C)c2ccccc21 (stereo not drawn)
[2]
  pKa: 4.18

## COc1cc(Cc2cnc(N)nc2N)cc2c1NCCC2C (stereo not drawn)
Dihydrofolate reductase [1]
  IC50: 33 µM

## CC1=CC(C)(C)Nc2ccc(Cc3cnc(N)nc3N)cc21
Dihydrofolate reductase [1]
  IC50: 240 µM

## CCOc1cc(Cc2cnc(N)nc2N)cc2c1NC(C)(C)C=C2C
Dihydrofolate reductase [1]
  IC50: 250 µM

## COc1cc(Cc2cnc(N)nc2N)cc2c1NC(C)(CF)C=C2CF (stereo not drawn)
Escherichia coli [3]
  MIC: 10 µg/mL (≈ 27.7 µM)
Enterococcus faecalis
  MIC: 0.3 µg/mL (≈ 0.83 µM)
Klebsiella aerogenes [4]
  MIC: 30 µg/mL (≈ 83 µM)
Vibrio cholerae
  MIC: 3 µg/mL (≈ 8.3 µM)
Streptococcus pyogenes [5]
  MIC: 0.1 µg/mL (≈ 0.277 µM)
Salmonella typhimurium [6]
  MIC: 3 µg/mL (≈ 8.3 µM)
Dihydrofolate reductase [1]
  IC50: 230 µM
[7]
  MIC: 10 µg/mL (≈ 27.7 µM)
Streptococcus agalactiae [8]
  MIC: 0.3 µg/mL (≈ 0.83 µM)
Shigella flexneri [9]
  MIC: 10 µg/mL (≈ 27.7 µM)
Proteus vulgaris [10]
  MIC: 10 µg/mL (≈ 27.7 µM)
Klebsiella pneumoniae [11]
  MIC: 10 µg/mL (≈ 27.7 µM)
Staphylococcus aureus
  MIC: 0.3 µg/mL (≈ 0.83 µM)

## COc1cccc2c1N(C)C(C)(C)C=C2C
[2]
  pKa: 6.82

## COc1cc(Cc2cnc(N)nc2N)cc2c1N(C)CCC2C (stereo not drawn)
Dihydrofolate reductase [23]
  IC50: 250 µM
[2]
  pKa: 6.51

## COc1cc(Cc2cnc(N)nc2N)cc2c1NC(C)(C)CC2C (stereo not drawn)
Escherichia coli [3]
  MIC: 30 µg/mL (≈ 91.6 µM)
Enterococcus faecalis
  MIC: 1 µg/mL (≈ 3.05 µM)
Klebsiella aerogenes [4]
  MIC: 10 µg/mL (≈ 30.5 µM)
Vibrio cholerae
  MIC: 3 µg/mL (≈ 9.16 µM)
Streptococcus pyogenes [5]
  MIC: 1 µg/mL (≈ 3.05 µM)
Salmonella typhimurium [6]
  MIC: 30 µg/mL (≈ 91.6 µM)
Dihydrofolate reductase [1]
  IC50: 430 µM
[7]
  MIC: 100 µg/mL (≈ 305 µM)
Streptococcus agalactiae [8]
  MIC: 1 µg/mL (≈ 3.05 µM)
Shigella flexneri [9]
  MIC: 30 µg/mL (≈ 91.6 µM)
Proteus vulgaris [10]
  MIC: > 100 µg/mL
Staphylococcus aureus
  MIC: 3 µg/mL (≈ 9.16 µM)

## CC1=CC(C)(C)Nc2c1cc(Cc1cnc(N)nc1N)c1cccnc21
Escherichia coli [3]
  MIC: 30 µg/mL (≈ 86.6 µM)
Enterococcus faecalis
  MIC: 0.3 µg/mL (≈ 0.866 µM)
Klebsiella aerogenes [4]
  MIC: 10 µg/mL (≈ 28.9 µM)
Vibrio cholerae
  MIC: 1 µg/mL (≈ 2.89 µM)
Streptococcus pyogenes [5]
  MIC: 0.03 µg/mL (≈ 0.0866 µM)
Salmonella typhimurium [6]
  MIC: 100 µg/mL (≈ 289 µM)
[7]
  MIC: 30 µg/mL (≈ 86.6 µM)
Streptococcus agalactiae [8]
  MIC: 0.3 µg/mL (≈ 0.866 µM)
Shigella flexneri [9]
  MIC: 100 µg/mL (≈ 289 µM)
Proteus vulgaris [10]
  MIC: > 100 µg/mL
Klebsiella pneumoniae [11]
  MIC: > 300 µg/mL
Staphylococcus aureus
  MIC: 0.1 µg/mL (≈ 0.289 µM)

## CC1CC(C)(C)Nc2ccc(Cc3cnc(N)nc3N)cc21 (stereo not drawn)
Dihydrofolate reductase [1]
  IC50: 300 µM

## COc1cccc2c1NC(C)(C)C=C2C
[2]
  pKa: 3.36

## COc1cc(Cc2cnc(N)nc2N)cc2c1N(CCOC(C)=O)C(C)(C)C=C2C
Dihydrofolate reductase [1]
  IC50: 164 µM

Source: ChEMBL document CHEMBL1124623, “2,4-Diamino-5-benzylpyrimidines and analogues as antibacterial agents. 12. 1,2-Dihydroquinolylmethyl analogues with high activity and specificity for bacterial dihydrofolate reductase” (J Med Chem, 1989)
